The values that follow come from patent US10168342B2, “Lipid probes and uses thereof” (THE SCRIPPS RESEARCH INSTITUTE, priority 2015, dated 2019).

Experiment [1] concerns the target T1, humanized rat FAAH (Rattus norvegicus, UniProt P97612, A377T/F194Y/I491V/L192F/S435N/V495M).
T1 sequence (P97612 30-579 L192F/F194Y/A377T/S435N/I491V/V495M limits assumed): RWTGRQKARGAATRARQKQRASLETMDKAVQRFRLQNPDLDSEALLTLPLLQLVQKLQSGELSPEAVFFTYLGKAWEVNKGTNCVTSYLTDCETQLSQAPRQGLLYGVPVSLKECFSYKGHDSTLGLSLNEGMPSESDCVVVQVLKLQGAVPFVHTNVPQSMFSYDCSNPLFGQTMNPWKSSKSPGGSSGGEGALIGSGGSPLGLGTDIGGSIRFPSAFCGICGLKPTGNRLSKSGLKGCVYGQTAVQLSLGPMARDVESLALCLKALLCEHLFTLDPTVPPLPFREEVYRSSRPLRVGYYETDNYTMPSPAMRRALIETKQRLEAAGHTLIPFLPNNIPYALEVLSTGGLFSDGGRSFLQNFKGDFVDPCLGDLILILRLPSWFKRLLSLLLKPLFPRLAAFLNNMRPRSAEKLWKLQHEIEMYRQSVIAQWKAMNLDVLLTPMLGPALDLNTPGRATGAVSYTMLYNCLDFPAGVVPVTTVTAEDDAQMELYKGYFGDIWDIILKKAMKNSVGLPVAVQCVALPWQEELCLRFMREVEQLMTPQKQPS
Briefly: FAAH activity by AEA hydrolysis, purified enzyme. The note with it: for inhibition of FAAH activity (AEA hydrolysis): 50 or 100 μM; for IC50: read-out: IC50 against purified recombinant FAAH. The class given is biochemical. The procedure: FAAH activity was measured by AEA hydrolysis: The membrane fraction of Neuro2a lysates (200 μL, 2.0 mg/mL) was incubated with DMSO or the test compound (1.0-250 μM) at 37° C. After 15 min, AEA-d8 (25 μM) was added and the samples were incubated for an additional 30 min and then quenched by the addition of two volumes of CHCl3:MeOH (2:1) containing pentadecanoic acid (PDA) (1.0 nmol) as an internal standard. After centrifuging (2,000×g, 5 min, 4° C.) to separate the organic and aqueous layers, the lower organic layer was transferred to a clean vial and analyzed by LC/MS as previously described. (Long et al., 2009) Pure humanized rat FAAH (Mileni et al., 2008) (5.0 ng/μL) was assayed in the same manner. Product levels were quantified by determining peak areas in relation to PDA.

The target in experiment [2] is T2, AEA-DA-modified peptides in Neuro2a cells (Mus musculus, UniProt Q02819).
T2 construct: endogenous in cells; host or cells: Neuro2a
T2 sequence (Q02819 26-459): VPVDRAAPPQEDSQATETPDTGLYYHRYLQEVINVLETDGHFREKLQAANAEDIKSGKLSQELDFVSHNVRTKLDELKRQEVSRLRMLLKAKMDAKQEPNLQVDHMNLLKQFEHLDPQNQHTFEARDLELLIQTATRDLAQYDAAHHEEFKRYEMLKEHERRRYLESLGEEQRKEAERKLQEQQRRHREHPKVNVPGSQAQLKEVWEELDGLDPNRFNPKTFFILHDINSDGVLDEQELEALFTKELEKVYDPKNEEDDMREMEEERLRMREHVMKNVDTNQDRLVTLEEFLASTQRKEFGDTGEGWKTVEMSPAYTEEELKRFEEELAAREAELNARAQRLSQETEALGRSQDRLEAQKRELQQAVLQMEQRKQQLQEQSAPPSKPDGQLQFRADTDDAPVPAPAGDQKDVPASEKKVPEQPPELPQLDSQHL
Briefly: isoTOP-ABPP mapping of AEA-DA-modified peptides in Neuro2a cells. The experiment is classed as cell-based. To be noted: for Times observed: probe 100 μM, 12 replicates. As to the method: Experiments were performed as described above using the AEA-DA probe (100 μM) in 3.0 mL of DMEM (serum-free) and Neuro2A cells without (twelve replicates; ten biological; two technical). For the ligand competition study, cells were treated with the AEA-DA probe (50 μM) and DMSO or MJN228 (50 μM) treatment. Cells were harvested and processed as described above. Whole cell lysates (500 μL at 1.5 mg/mL) were processed for MS analysis using the previously described isoTOPABPP protocol (Speers and Cravatt, 2005). In brief, for global mapping of AEA-DA-modified peptides, proteomes were split into two fractions, which were subjected to click chemistry conditions with either light or heavy isotopically labeled TEV-tags. For the […] competition study, proteomes were subjected to click chemistry conditions with either light (DMSO) or heavy (MJN228-treated) TEV-tags. Light and heavy-tagged proteomes in each experiment were then combined, and, following enrichment of probe-labeled targets using streptavidin beads, proteins were digested on-bead with trypsin and remaining immobilized peptides released with a subsequent TEV protease digestion. The resulting probe-modified peptides were collected for MS analysis, which was performed as described above with differences in the salt bumps applied in the chromatographic gradients which were 0%, 30%, 60%, 90% and 100% NH4OAc (500 mM). The protein identification searches of the MS data were performed using the same software packages described above with the following changes applied to identify the peptides modified with AEA-DA and the cleaved TEV tag. All amino acids were considered as possible residues for modification. To facilitate the computational searches, sets of up to 3 amino acids were searched using ProLuCID and filtered with DTASelect as described above. The mass of the modification used to search for probe-modified peptides was +727.4745 m/z for the probe plus the light TEV-tag and +733.4831 m/z for the heavy counterpart. […] For global mapping experiments, AEA-DA-modified peptides were expected to show a ratio of “heavy” and “light” signals of ˜1.0 (0.5<ratio<2.0) and were required to have been detected in at least two of the twelve replicate experiments.
In some embodiments, the ligands are tested for their interaction to NUCB1 in cells. […] MJN228 inhibited lipid probe binding to NUCB1 at concentrations as low as 10 μM, with near-maximal inhibition observed at ˜25 μM (FIG. 16A). […] The site of arachidonoyl probe (and MJN228) binding to NUCB1 was mapped in cells, which was accomplished by treating Neuro2A cells with the AEA-DA probe (50 μM) in the presence of DMSO or MJN228 (50 μM), followed by UV irradiation, CuAAC conjugation of AEA-DA-labeled proteins to isotopically light (DMSO-treated cells) and heavy (MJN228-treated cells) azide-biotin tags featuring a TEV protease-cleavable linker, and LCMS/MS analysis using a previously described platform, termed isoTOP-ABPP, for mapping probe-modified peptides in proteomes (Speers and Cravatt, 2005). A AEA-DA labeled peptide was identified for NUCB1 (aa 53-68) in DMSO-treated cells and the signals for this peptide were substantially (>5-fold) reduced in MJN228-treated cells (FIG. 15C). This AEA-DA labeling site was confirmed using recombinant, purified hNUCB1 and tandem MS analysis which narrowed down the site of probe modification to His67 (FIGS. 16B and 16C).

Molecules are shown by their SMILES.

One may read the IC50 as the concentration at which inhibition is half-maximal. Consider `CN1CCN(C(=O)c2c(-c3ccccc3)c3cc([N+](=O)[O-])ccc3n2C)CC1` [KML110, (1-Methyl-5-nitro-3-phenyl-1H-indol-2-yl)(4-methylpiperazin-1-yl)methanone], for which, in experiment [1], the “inhibition of FAAH activity (AEA hydrolysis)” value is reported as “do not substantially inhibit” and the IC50 is more than 100 µM.
As for `CN1CCN(C(=O)c2[nH]c3ccc([N+](=O)[O-])cc3c2-c2ccccc2)CC1` [MJN228, (4-Methylpiperazin-1-yl)(5-nitro-3-phenyl-1H-indol-2-yl)methanone], the “reduction of signals of AEA-DA labeled NUCB1 peptide (aa 53-68)” value in experiment [2] (Neuro2A cells, AEA-DA 50 μM, MJN228 50 μM) is more than 5 fold. Further, in experiment [1], the “inhibition of FAAH activity (AEA hydrolysis)” value is reported as “do not substantially inhibit” and the IC50 is more than 100 µM.
For the compound `C#CCCCC1(CC/C=C\C/C=C\C/C=C\CCCC(=O)NCCO)N=N1` [AEA-DA, (5Z,8Z,11Z)-N-(2-hydroxyethyl)-14-(3-(pent-4-yn-1-yl)-3H-diazirin-3-yl)tetradeca-5,8,11-trienamide], the Times observed in experiment [2] (AEA-DA-modified peptide NUCB1 Q02819 53-69, SEQ ID NO 71) is 11; in experiment [2] (AEA-DA-modified peptide NUCB1 Q02819 246-275, SEQ ID NO 70), 4.
